Test results taken from publication PMC10786919, “Design-rules for stapled peptides with in vivo activity and their application to Mdm2/X antagonists” (Nature Communications, 2024).
In brackets after ≈: the same amount, converted by molar mass. Read-outs that look alike come from different tables or passages of the source. Positions of bridges follow the written chain, without caps; N, C: chain ends. Non-standard residues stand in square brackets, D forms with d. Residues, ends and D or L forms follow the SMILES beside them. Lys(N3) = [N-]=[N+]=NCCCC[C@H](N)C(=O)O; R8 = C=CCCCCCC[C@@](C)(N)C(=O)O; Cba = N[C@@H](CC1CCC1)C(=O)O; S5 = C=CCCC[C@](C)(N)C(=O)O; βAla = NCCC(=O)O

Key:
[1] = Lactate dehydrogenase (LDH) release assay; type: cell-based
In short: (§1)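 Read-out was lactate dehydrogenase release, reflecting loss of membrane integrity, in reporter-engineered HCT116 cells (p53-responsive β-lactamase) seeded at 8000 cells per well. Final DMSO was 0.5%, and reported values are geometric means from three or more biological repeats.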

HCT116 cells = experiment: Lactate dehydrogenase (LDH) release assay; type: cell-based
In short: as §1

EPSA = type: physicochemical
[2] = Solubility assay (kinetic solubility, PBS pH 7); type: physicochemical; conditions: pH 7, PBS; for solubility kinetic: pH 7, aqueous buffer, kinetic from dmso stock, read-out: Solubility
In short: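 Reference standards were made by diluting the 10 mM stock to 100 µM in acetonitrile:methanol:DMSO 10:80:10. Solubility in µM was calculated as the sample peak area divided by the standard peak area, multiplied by the standard concentration.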

in vitro = experiment: in vitro
In short: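 Azido-peptide permeability was read as loss of NanoBRET signal (donor 450 nm, acceptor 610 nm) after adding NanoBret618-azide at 10 μM final.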

[3] = Experimental LogD (partition coefficient); conditions: for logD: not stated, Partition Coeff LogD
[4] = Nanoclick permeability assay EC50
[5] = 0% FBS 4Hr, read-out: LDH: Cytotoxicity assay: EC50
[6] = 10% FBS 16Hr, read-out: LDH: Cytotoxicity assay: EC50

| SMILES | EC50 ([1]; LDH: Cytotoxicity assay: EC50) | LDH: Cytotoxicity assay: % Effect (HCT116 cells) | EPSA (EPSA) | Solubility [2] | cell entry EC50 (in vitro; [4]) | Partition Coeff LogD [3] | EPSA (EPSA; EPSA) | solubility kinetic [2] | logD [3] | EC50 [1, 5] | EC50 [1, 6] | LDH: Cytotoxicity assay: % Effect (HCT116 cells; 0% FBS 4Hr) | LDH: Cytotoxicity assay: % Effect (HCT116 cells; 10% FBS 16Hr) | cell entry EC50 (in vitro) |
| --- | --- | --- | --- | --- | --- | --- | --- | --- | --- | --- | --- | --- | --- | --- |
| CC(=O)N[C@@H](CCC(=O)O)C(=O)N[C@@H](CCCCN=[N+]=[N-])C(=O)NCCCCCC(=O)N[C@H](C(=O)N[C@@H](CO)C(=O)N[C@@H](Cc1ccccc1)C(=O)N[C@]1(C)CCCCCCC=CCCC[C@@](C)(C(N)=O)NC(=O)[C@H](CC(C)C)NC(=O)[C@H](CC(C)C)NC(=O)[C@H](C)NC(=O)[C@H](Cc2c[nH]c3ccccc23)NC(=O)[C@H](Cc2ccc(O)cc2)NC(=O)[C@H](CCC(=O)O)NC1=O)[C@@H](C)O [MP-027] | > 50000 nM | 2.385% | Poorly Behaved | Poorly Behaved | 415 nM | Poorly Behaved |  |  |  |  |  |  |  |  |
| CC(=O)N[C@@H](CCCCN=[N+]=[N-])C(=O)N[C@@H](CCCCN)C(=O)N[C@@H](CCCCN)C(=O)N[C@@H](CC(C)C)C(=O)N[C@H](C(=O)N[C@@H](Cc1ccccc1)C(=O)N[C@]1(C)CCCCCCC=CCCC[C@@](C)(C(=O)N[C@@H](CO)C(=O)N[C@@H](C)C(=O)N[C@@H](C)C(N)=O)NC(=O)[C@H](CC2CCC2)NC(=O)[C@H](CCC(N)=O)NC(=O)[C@H](C)NC(=O)[C@H](Cc2c[nH]c3ccccc23)NC(=O)[C@H](Cc2ccc(O)cc2)NC(=O)[C@H](CCC(=O)O)NC1=O)[C@@H](C)O [MP-026] | > 50000 nM | 25.62% |  |  | 1030 nM | Poorly Behaved | 213 A^2 | 3 µM (≈ 6.47 µg/mL) |  |  |  |  |  |  |
| CC(=O)N[C@@H](CCCCN=[N+]=[N-])C(=O)NCCC(=O)N[C@H](C(=O)N[C@@H](CO)C(=O)N[C@@H](Cc1ccccc1)C(=O)N[C@]1(C)CCCCCCC=CCCC[C@@](C)(C(=O)N[C@@H](CO)C(=O)N[C@@H](C)C(=O)N[C@@H](C)C(N)=O)NC(=O)[C@H](CC(C)C)NC(=O)[C@H](CC(C)C)NC(=O)[C@H](C)NC(=O)[C@H](Cc2c[nH]c3ccccc23)NC(=O)[C@H](Cc2ccc(O)cc2)NC(=O)[C@H](CCC(=O)O)NC1=O)[C@@H](C)O [MP-686] | > 50700 nM |  |  |  | 38.5 nM |  | 193 A^2 | 2 µM (≈ 3.83 µg/mL) | 2.7 |  |  |  |  |  |
| CC(=O)N[C@@H](CCCCN=[N+]=[N-])C(=O)NCCC(=O)N[C@@H](CC(C)C)C(=O)N[C@@H](CC1CCC1)C(=O)N[C@@H](Cc1ccc(O)cc1)C(=O)N[C@]1(C)CCCCCCC=CCCC[C@@](C)(C(=O)N[C@@H](C)C(=O)N[C@@H](C)C(=O)N[C@@H](C)C(N)=O)NC(=O)[C@H](Cc2ccccc2)NC(=O)[C@H](Cc2c[nH]c3ccccc23)NC(=O)[C@H](CCC(=O)O)NC(=O)[C@H]([C@@H](C)O)NC(=O)[C@H](CCC(N)=O)NC(=O)[C@H](CO)NC1=O [MP-4204] (Ac-[Lys(N3)][βAla]L[Cba]Y[R8]SQTEWF[S5]AAA-NH2; staple 6-13) | > 50700 nM | 16.98% |  | Poorly Behaved | 669 nM | Poorly Behaved | 191 A^2 |  |  |  |  |  |  |  |
| CC(=O)N[C@@H](CCCCN=[N+]=[N-])C(=O)NCCC(=O)N[C@@H](CC(C)C)C(=O)N[C@H](C(=O)N[C@@H](Cc1ccccc1)C(=O)N[C@@]1(C)CCCCCCC=CCCC[C@@](C)(C(=O)N[C@@H](CO)C(=O)N[C@@H](C)C(=O)N[C@@H](C)C(N)=O)NC(=O)[C@H](CC2CCC2)NC(=O)[C@H](CCC(N)=O)N(C)C(=O)[C@H](C)NC(=O)[C@H](Cc2c[nH]c3ccccc23)NC(=O)[C@H](Cc2ccc(O)cc2)NC(=O)[C@H](CCC(=O)O)NC1=O)[C@@H](C)O [MP-297] | > 50700 nM |  |  |  | 1530 nM |  | 183 A^2 | 108 µM (≈ 213 µg/mL) | 2.5 |  |  |  |  |  |
| CC(=O)N[C@@H](CCCCN=[N+]=[N-])C(=O)N[C@H](C(=O)N[C@@H](Cc1ccccc1)C(=O)N[C@]1(C)CCCCCCC=CCCC[C@@](C)(C(=O)N[C@@H](C)C(=O)N[C@@H](C)C(=O)N[C@@H](C)C(=O)N[C@@H](C)C(=O)N[C@@H](C)C(=O)N[C@H](C)C(N)=O)NC(=O)[C@H](CC2CCC2)NC(=O)[C@H](CCC(N)=O)NC(=O)[C@H](C)NC(=O)[C@H](Cc2c[nH]c3ccccc23)NC(=O)[C@H](Cc2ccc(O)cc2)NC(=O)[C@H](CCC(=O)O)NC1=O)[C@@H](C)O [MP-062] (Ac-[Lys(N3)]TF[R8]EYWAQ[Cba][S5]AAAAA[dA]-NH2; staple 4-11) |  |  |  | Poorly Behaved |  | Poorly Behaved | 201 A^2 |  |  | > 50700 nM | > 50700 nM | 5.433% | 10.66% | 2080 nM |
| CC(=O)N[C@@H](CCCCN=[N+]=[N-])C(=O)NCCC(=O)N[C@@H](CC(C)C)C(=O)N[C@H](C(=O)N[C@@H](Cc1ccccc1)C(=O)N[C@]1(C)CCCCC#CC#CCCC[C@@](C)(C(=O)N[C@@H](CO)C(=O)N[C@@H](C)C(=O)N[C@@H](C)C(N)=O)NC(=O)[C@H](CC2CCC2)NC(=O)[C@H](CCC(N)=O)NC(=O)[C@H](C)NC(=O)[C@H](Cc2c[nH]c3ccccc23)NC(=O)[C@H](Cc2ccc(O)cc2)NC(=O)[C@H](CCC(=O)O)NC1=O)[C@@H](C)O [MP-806] | > 50700 nM |  |  |  | 5580 nM |  | 203 A^2 | 34 µM (≈ 66.8 µg/mL) | 2.44 |  |  |  |  |  |
| CC(=O)N[C@@H](CCCCN=[N+]=[N-])C(=O)NCCC(=O)N[C@@H](CC(C)C)C(=O)N[C@H](C(=O)N[C@@H](Cc1ccccc1)C(=O)N[C@]1(C)CCCCCCC=CCCC[C@@](C)(C(=O)N[C@@H](CO)C(=O)N[C@@H](C)C(=O)N[C@@H](C)C(N)=O)NC(=O)[C@H](CCC(N)=O)NC(=O)[C@H](Cc2ccc(O)cc2)NC(=O)[C@H](Cc2c[nH]c3ccccc23)NC(=O)[C@H](CC2CCC2)NC(=O)[C@H](CCC(=O)O)NC(=O)[C@H](C)NC1=O)[C@@H](C)O [MP-205] (Ac-[Lys(N3)][βAla]LTF[R8]AE[Cba]WYQ[S5]SAA-NH2; staple 6-13) | > 50700 nM | -2.394% |  |  | 276 nM |  | 198 A^2 | 16 µM (≈ 31.5 µg/mL) | 3.02 |  |  |  |  |  |
| CC(=O)N[C@@H](CCCCN=[N+]=[N-])C(=O)N[C@@H](CCCCN)C(=O)N[C@@H](CC(C)C)C(=O)N[C@H](C(=O)N[C@@H](Cc1ccccc1)C(=O)N[C@]1(C)CCCCCCC=CCCC[C@@](C)(C(=O)N[C@@H](CO)C(=O)N[C@@H](C)C(=O)N[C@@H](C)C(N)=O)NC(=O)[C@H](CC2CCC2)NC(=O)[C@H](CCC(N)=O)NC(=O)[C@H](C)NC(=O)[C@H](Cc2c[nH]c3ccccc23)NC(=O)[C@H](Cc2ccc(O)cc2)NC(=O)[C@H](CCC(=O)O)NC1=O)[C@@H](C)O [MP-025] | > 50000 nM | 3.386% |  |  | 1170 nM |  | 205 A^2 | 3 µM (≈ 6.08 µg/mL) | 2.83 |  |  |  |  |  |
| CC(=O)N[C@@H](CCCCN=[N+]=[N-])C(=O)NCCC(=O)N[C@@H](CC(C)C)C(=O)N[C@H](C(=O)N[C@@H](Cc1ccccc1)C(=O)N[C@]1(C)CCCCCCC=CCCC[C@@](C)(C(=O)N[C@@H](CCC(=O)O)C(=O)N[C@@H](CCC(=O)O)C(=O)N[C@@H](C)C(=O)N[C@@H](C)C(=O)N[C@@H](C)C(=O)N[C@@H](C)C(N)=O)NC(=O)[C@H](CC2CCC2)NC(=O)[C@H](CCC(N)=O)NC(=O)[C@H](CCC(=O)O)NC(=O)[C@H](Cc2c[nH]c3ccccc23)NC(=O)[C@H](Cc2ccc(O)cc2)NC(=O)[C@H](CCC(=O)O)NC1=O)[C@@H](C)O [MP-3685, AZIDE-ATSP-7041 (A8E, EEAAAA TAIL)] (Ac-[Lys(N3)][βAla]LTF[R8]EYWEQ[Cba][S5]EEAAAA-NH2; staple 6-13) |  |  |  |  |  |  | 195 A^2 | 150 µM (≈ 351 µg/mL) | 1.99 | > 50700 nM | > 50700 nM | 10% | -3.573% | 1260 nM |
| CC(=O)N[C@@H](CCCCN=[N+]=[N-])C(=O)NCCC(=O)N[C@@H](CC(C)C)C(=O)N[C@H](C(=O)N[C@@H](CCC(=O)O)C(=O)N[C@]1(C)CCCCCCC=CCCC[C@@](C)(C(=O)N[C@@H](CO)C(=O)N[C@@H](C)C(=O)N[C@@H](C)C(N)=O)NC(=O)[C@H](CC2CCC2)NC(=O)[C@H](CCC(N)=O)NC(=O)[C@H](C)NC(=O)[C@H](Cc2c[nH]c3ccccc23)NC(=O)[C@H](Cc2ccc(O)cc2)NC(=O)[C@H](Cc2ccccc2)NC1=O)[C@@H](C)O [MP-123] (Ac-[Lys(N3)][βAla]LTE[R8]FYWAQ[Cba][S5]SAA-NH2; staple 6-13) | > 50700 nM |  |  |  | 682 nM |  | 197 A^2 | 2 µM (≈ 3.94 µg/mL) | 2.66 |  |  |  |  |  |
